Values joined by “and” are separate entries in the source; they are usually repeats but may differ in a detail not shown here. Equal entries are not always repeated. Where two headings read alike, the source gives them in different places.
Legend:
[1] = system: PBMCs; assay: Cell viability assay (CCK-8), PBMCs; assay type: cell-based, human; conditions: 72 h, PBMCs; for cell vialibity normalized to Vehicle (DMSO): in % (unit assumed)
Method: Buffy coats were ordered from anonymous blood donors at […]. […] Cells were seeded in 96-well plates ranging from 2000 to 15,000 cells per well depending on different cell lines and treated with antibiotics in serial dilutions for 72 h (120 h for the preliminary assays) in a humidified incubator (37 °C, 5% CO2) in 100 μl medium (DMEM with 10% FBS, 2.05 mM L-glutamine (Sigma) for Hek293 and Hela; RPMI-1640 with 10% FBS, 2.05 mM L-glutamine (Sigma), and 55 μM 2-ME (Gibco) for Jurkat T cells and PBMCs). Based on preliminary tests, the number of cells per well was optimized to 2000 for Hela and Hek293, 6000 for Jurkat T cells, and 15,000 for PBMCs. The stocks of antibiotics were prepared by dissolving in DMSO. As control, the same amount of DMSO was added to the non-treated groups. Serial drug dilutions were prepared in the corresponding medium to provide a total of 9 concentrations up to 300 μM for tetracyclines and up to 900 μM for additional bacterial protein synthesis inhibitors. After drug treatment, 10% CCK-8 (Cell Counting Kit-8, Sigma Aldrich) (10 μl per well) of the total volume was added to the cells and incubated for 1-4 h depending on cell lines (1 h for Hela and Hek293; 3 h for Jurkat T cells; 4 h for PBMCs) before the evaluation of the effect of antibiotics on cell viability. […] Results were visually confirmed under the light microscope. Each treatment was performed in technical repeats. Dose-response curves were plotted, mean ± SEM was shown, and half maximal inhibitory concentration (IC50) values were calculated in GraphPad Prism.

[2] = system: Jurkat T cells; assay: Cell viability assay (CCK-8), Jurkat T cells; assay type: cell-based, human; conditions: Jurkat, 72 h, Fig. 1A, in % (unit assumed)
Method: Cells were seeded in 96-well plates ranging from 2000 to 15,000 cells per well depending on different cell lines and treated with antibiotics in serial dilutions for 72 h (120 h for the preliminary assays) in a humidified incubator (37 °C, 5% CO2) in 100 μl medium (DMEM with 10% FBS, 2.05 mM L-glutamine (Sigma) for Hek293 and Hela; RPMI-1640 with 10% FBS, 2.05 mM L-glutamine (Sigma), and 55 μM 2-ME (Gibco) for Jurkat T cells and PBMCs). Based on preliminary tests, the number of cells per well was optimized to 2000 for Hela and Hek293, 6000 for Jurkat T cells, and 15,000 for PBMCs. The stocks of antibiotics were prepared by dissolving in DMSO. As control, the same amount of DMSO was added to the non-treated groups. Serial drug dilutions were prepared in the corresponding medium to provide a total of 9 concentrations up to 300 μM for tetracyclines and up to 900 μM for additional bacterial protein synthesis inhibitors. After drug treatment, 10% CCK-8 (Cell Counting Kit-8, Sigma Aldrich) (10 μl per well) of the total volume was added to the cells and incubated for 1–4 h depending on cell lines (1 h for Hela and Hek293; 3 h for Jurkat T cells; 4 h for PBMCs) before the evaluation of the effect of antibiotics on cell viability. […] Results were visually confirmed under the light microscope. Each treatment was performed in technical repeats. Dose-response curves were plotted, mean ± SEM was shown, and half maximal inhibitory concentration (IC50) values were calculated in GraphPad Prism.

[3] = Homo sapiens, PBMC, dose 1.23457 μM, Fig. 1B, read-out: cell vialibity normalized to Vehicle (DMSO)
[4] = Homo sapiens, PBMC, dose 11.1111 μM, Fig. 1B, read-out: cell vialibity normalized to Vehicle (DMSO)
[5] = Homo sapiens, PBMC, dose 0.411523 μM, Fig. 1B, read-out: cell vialibity normalized to Vehicle (DMSO)
[6] = Homo sapiens, PBMC, dose 300 μM, Fig. 1B, read-out: cell vialibity normalized to Vehicle (DMSO)
[7] = Homo sapiens, PBMC, dose 0.0457247 μM, Fig. 1A, read-out: cell vialibity normalized to Vehicle (DMSO)
[8] = Homo sapiens, PBMC, dose 0.411523 μM, Fig. 1A, read-out: cell vialibity normalized to Vehicle (DMSO)
[9] = Homo sapiens, PBMC, dose 100 μM, Fig. 1A, read-out: cell vialibity normalized to Vehicle (DMSO)

| Molecule | viability at 300 µM [1, 6] | cell vialibity normalized to Vehicle (DMSO) ([2]; dose 0.0457247 μM) | cell vialibity normalized to Vehicle (DMSO) ([2]; dose 0.137174 μM) | cell vialibity normalized to Vehicle (DMSO) ([2]; dose 0.411523 μM) | cell vialibity normalized to Vehicle (DMSO) ([2]; dose 1.23457 μM) | cell vialibity normalized to Vehicle (DMSO) ([2]; dose 3.7037 μM) | cell vialibity normalized to Vehicle (DMSO) ([2]; dose 11.1111 μM) | cell vialibity normalized to Vehicle (DMSO) ([2]; dose 33.3333 μM) | cell vialibity normalized to Vehicle (DMSO) ([2]; dose 100 μM) | cell vialibity normalized to Vehicle (DMSO) ([2]; dose 300 μM) | viability at 0.0457247 µM [1, 7] | viability at 100 µM [1, 9] | other results |
| --- | --- | --- | --- | --- | --- | --- | --- | --- | --- | --- | --- | --- | --- |
| CC[C@H]1OC(=O)[C@H](C)[C@@H](O[C@H]2C[C@@](C)(OC)[C@@H](O)[C@H](C)O2)[C@H](C)[C@@H](O[C@@H]2O[C@H](C)C[C@H](N(C)C)[C@H]2O)[C@](C)(O)C[C@@H](C)CN(C)[C@H](C)[C@@H](O)[C@]1(C)O [Azithromycin, azithromycin] |  |  |  |  |  |  |  |  |  |  |  |  | viability at 1.23457 µM [1, 3]: 91%; viability at 11.1111 µM [1, 4]: 82% |
| CCC[C@@H]1C[C@@H](C(=O)N[C@@H]([C@H]2O[C@H](SC)[C@H](O)[C@@H](O)[C@H]2O)[C@H](C)Cl)N(C)C1 [Clindamycin, clindamycin] | 63% |  |  |  |  |  |  |  |  |  |  |  | viability at 0.137174 µM ([1]; Homo sapiens, PBMC, dose 0.137174 μM, Fig. 1B, read-out: cell vialibity normalized to Vehicle (DMSO)): 97%; viability at 0.411523 µM [1, 5]: 95.8%; viability at 1.23457 µM [1, 3]: 92.3%; viability at 11.1111 µM [1, 4]: 102%; viability at 100 µM ([1]; Homo sapiens, PBMC, dose 100 μM, Fig. 1B, read-out: cell vialibity normalized to Vehicle (DMSO)): 94.6% |
| CC(=O)NC[C@H]1CN(c2ccc(N3CCOCC3)c(F)c2)C(=O)O1 [Linezolid, linezolid] | 24.4% |  |  |  |  |  |  |  |  |  |  |  |  |
| C=C1c2cccc(O)c2C(=O)C2=C(O)[C@]3(O)C(=O)C(C(N)=O)=C(O)[C@@H](N(C)C)[C@@H]3[C@@H](O)[C@H]12 [Methacycline, methacycline] |  | 104.711 and 102.732 and 106.75 | 102.378 and 109.807 and 118.32 | 103.32 and 108.822 and 104.75 | 108.031 and 101.209 and 106 | 100.628 and 106.046 and 105.75 | 118.035 and 121.182 and 107.162 | 32.5707 and 32.2436 and 34.2424 | 20.0538 and 20.6001 and 28.3196 | 11.2607 and 14.1961 and 17.0248 | 105% | 30% | viability at 0.411523 µM [1, 8]: 102% |
| CN(C)c1ccc(O)c2c1C[C@H]1C[C@H]3[C@H](N(C)C)C(O)=C(C(N)=O)C(=O)[C@@]3(O)C(O)=C1C2=O [Minocycline, minocycline] |  | 100.385 and 100.531 and 101.165 |  | 98.2906 and 97.4244 and 90.1654 | 99.8718 and 96.2387 and 90.2372 | 105.513 and 101.758 and 90.3163 | 49.6581 and 44.3173 and 49.0295 | 19.6154 and 18.6836 and 25.6578 | 12.3932 and 10.5887 and 15.9454 | 6.111 and 6.95 and 5.018 | 97.4% | 46.6% | viability at 0.137174 µM ([1]; Homo sapiens, PBMC, dose 0.137174 μM, Fig. 1A, read-out: cell vialibity normalized to Vehicle (DMSO)): 98.5%; viability at 0.411523 µM [1, 8]: 100%; viability at 1.23457 µM ([1]; Homo sapiens, PBMC, dose 1.23457 μM, Fig. 1A, read-out: cell vialibity normalized to Vehicle (DMSO)): 95.2%; viability at 3.7037 µM ([1]; Homo sapiens, PBMC, dose 3.7037 μM, Fig. 1A, read-out: cell vialibity normalized to Vehicle (DMSO)): 91.6%; viability at 11.1111 µM ([1]; Homo sapiens, PBMC, dose 11.1111 μM, Fig. 1A, read-out: cell vialibity normalized to Vehicle (DMSO)): 87.6%; viability at 33.3333 µM ([1]; Homo sapiens, PBMC, dose 33.3333 μM, Fig. 1A, read-out: cell vialibity normalized to Vehicle (DMSO)): 81.2% |
| CN(C)[C@@H]1C(O)=C(C(N)=O)C(=O)[C@@]2(O)C(O)=C3C(=O)c4c(O)cccc4[C@@](C)(O)[C@H]3C[C@@H]12 [Tetracycline, tetracycline] |  | 102.181 and 108.663 and 114.096 | 99.1611 and 103.998 and 102.471 | 100 and 102.207 and 96 | 99.3708 and 109.246 and 98.7059 | 100.377 and 106.955 and 130.118 | 115.478 and 121.824 and 122.353 |  | 13.3809 and 13.536 and 12.3529 |  | 96% | 42.5% | viability at 300 µM ([1]; Homo sapiens, PBMC, dose 300 μM, Fig. 1A, read-out: cell vialibity normalized to Vehicle (DMSO)): 28.2% |
| C=C[C@]1(C)C[C@@H](OC(=O)CSCCN(CC)CC)[C@]2(C)[C@H](C)CC[C@]3(CCC(=O)[C@H]32)[C@@H](C)[C@@H]1O [Tiamulin, tiamulin] | 7.89% |  |  |  |  |  |  |  |  |  |  |  | viability at 0.411523 µM [1, 5]: 103%; viability at 900 µM ([1]; Homo sapiens, PBMC, dose 900 μM, Fig. 1B, read-out: cell vialibity normalized to Vehicle (DMSO)): 3.99% |
| medocycline |  | 102.989 and 99.9557 and 109.669 | 102.725 and 107.699 and 114.702 | 103.253 and 102.434 and 102.384 | 99.4725 and 91.8142 and 98.8083 | 86.4176 and 91.8584 and 75.4404 | 52.967 and 57.0354 and 39.5078 | 13.8022 and 14.0708 and 21.114 | 9.495 and 9.425 and 18.7824 | 7.165 and 7.743 and 8.238 |  |  | cell vialibity normalized to Vehicle (DMSO) ([1]; dose 0.0457247 μM, Fig. 1A): 99.3099 and 104.911 and 97.5874 and 111.701 and 85.5908; cell vialibity normalized to Vehicle (DMSO) ([1]; dose 0.137174 μM, Fig. 1A): 96.2044 and 113.924 and 98.007 and 101.337 and 91.5168; cell vialibity normalized to Vehicle (DMSO) ([1]; dose 0.411523 μM, Fig. 1A): 87.4466 and 108.341 and 104.406 and 103.147 and 93.157; cell vialibity normalized to Vehicle (DMSO) ([1]; dose 1.23457 μM, Fig. 1A): 87.9395 and 106.341 and 92.1504 and 97.7385 and 83.3333; cell vialibity normalized to Vehicle (DMSO) ([1]; dose 3.7037 μM, Fig. 1A): 96.5495 and 93.5206 and 91.1364 and 95.1622 and 83.8095; cell vialibity normalized to Vehicle (DMSO) ([1]; dose 11.1111 μM, Fig. 1A): 80.6934 and 86.1279 and 92.0804 and 88.6726 and 85.0088; cell vialibity normalized to Vehicle (DMSO) ([1]; dose 33.3333 μM, Fig. 1A): 52.5961 and 55.9883 and 48.1294 and 49.4985 and 42.8924; cell vialibity normalized to Vehicle (DMSO) ([1]; dose 100 μM, Fig. 1A): 27.933 and 27.6926 and 32.9196 and 27.237 and 25.2205; cell vialibity normalized to Vehicle (DMSO) ([1]; dose 300 μM, Fig. 1A): 19.208 and 32.8451 and 31.9056 and 30.1672 and 23.6508 |

— paper PMC12045974, “T cell toxicity induced by tigecycline binding to the mitochondrial ribosome” (Nature Communications, 2025)
